Results published in patent publication US9193714B2, “Fluorinated estrogen receptor modulators and uses thereof” (priority 2011, dated 2015).
Read-outs that look alike come from different tables or passages of the source.

How the values were obtained:
ER-α = target: T1, ER-α (Homo sapiens, UniProt P03372); assay: Breast Cancer Cell ER-α in Cell Western Assay (SP1); type: cell-based; details: MCF7, read-out: ER In-Cell Western Assay (SP1); Max Response
T1 construct: endogenous in cells; host or cells: MCF-7
T1 sequence (P03372 whole entry): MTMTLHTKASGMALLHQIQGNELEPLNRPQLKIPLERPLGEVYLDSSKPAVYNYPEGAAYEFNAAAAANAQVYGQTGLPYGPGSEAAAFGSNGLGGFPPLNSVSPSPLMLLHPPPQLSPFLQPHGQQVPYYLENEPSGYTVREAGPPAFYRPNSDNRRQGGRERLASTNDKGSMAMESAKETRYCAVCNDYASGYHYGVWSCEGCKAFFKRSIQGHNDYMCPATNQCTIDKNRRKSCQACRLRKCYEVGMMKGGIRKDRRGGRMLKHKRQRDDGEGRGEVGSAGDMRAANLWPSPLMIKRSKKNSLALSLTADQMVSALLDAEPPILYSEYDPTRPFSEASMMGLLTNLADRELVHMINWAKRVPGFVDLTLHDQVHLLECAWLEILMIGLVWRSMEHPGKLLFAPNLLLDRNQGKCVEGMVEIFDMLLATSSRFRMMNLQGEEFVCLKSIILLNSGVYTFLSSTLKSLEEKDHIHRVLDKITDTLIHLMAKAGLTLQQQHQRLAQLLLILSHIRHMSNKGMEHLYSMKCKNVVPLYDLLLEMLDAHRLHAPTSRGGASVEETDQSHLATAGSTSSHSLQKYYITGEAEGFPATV
Method: MCF-7 cells were adjusted to a concentration of 200,000 cells per mL in RPMI containing 10% charcoal-stripped FBS and 20 mM HEPES. 16 microliters of the cell suspension (3200 cells) was added to each well of a poly-D-lysine 384 well plate, and the cells were incubated overnight to allow the cells to adhere. The following day an eleven point, serial semilog dilution of each compound was added to the cells in 16 μL at a final concentration ranging from 0.3-0.000003 μM. At 4 or 24 hr post compound addition, the cells were fixed (10% formalin in PBS) for 20 minutes. Cells were permeablized in PBS 0.1% Triton and blocked with LICOR blocking buffer (50 μl/well, 90′). The wells were then incubated overnight at 4° C. with SP1 rabbit monoclonal Ab (Thermo Scientific) diluted 1:1000 in LICOR blocking buffer/0.1% Tween-20. Wells which were treated with blocking buffer with Tween but no antibody were used as a background control. Wells were washed with 0.1% Tween-20/PBS and then incubated in goat anti-rabbit IRDye™ 800 CW (LICOR Inc.; 1:1000) and DRAQ5 DNA dye (1:2000 for 2 mM stock) diluted in LICOR blocking buffer containing 0.1% Tween-20 and 0.01% SDS for 60 minutes. Cells were washed (50 μl/well, 5′ each) in 0.1% Tween-20/PBS. Plates were scanned on a LICOR Odyssey infrared imaging system. Integrated intensities in the 800 nm channel and 700 nm channel were measured to determine levels of ER and DNA respectively. Percent ER levels were determined as follows: (Integrated intensity 800 nm sample/integrated intensity 700 nm sample)/(Integrated intensity 800 nm untreated cells/integrated intensity 700 nm untreated cells)×100=% ER levels.

MCF-7 cells = assay: Breast Cancer Cell Viability Assay (MCF7 Viability Assay); type: cell-based; details: for IC50: Homo sapiens, MCF7, 120 h, read-out: MCF7 Viability Assay IC50
Method: MCF-7 cells were adjusted to a concentration of 20,000 cells per mL in RPMI containing 10% FBS and 20 mM HEPES. 16 microliters of the cell suspension (320 cells) was added to each well of a 384 well plate, and the cells were incubated overnight to allow the cells to adhere. The following day an eleven point, serial semilog dilution of each compound was added to the cells in 16 μL at a final concentration ranging from 0.3-0.000003 μM. After 5 days' compound exposure, 16 μL of CellTiter-GLo (Promega, Madison Wis.) was added to the cells the relative luminescence units (RLUs) of each well was determined. CellTiter-Glo added to 32 μL of medium without cells was used to obtain a background value. The Percent viability of each sample was determined as follows: (RLU sample-RLU background/RLU untreated cells-RLU background)×100=% viability.

[1] = MCF-7 cells, 5 days' compound exposure, CellTiter-Glo

IC50 (MCF-7 cells) [nM] | SMILES | Emax (ER-α) [%] | IC50 (MCF-7 cells; [1]) [nM] | MCF7 Viability Assay Max Response (MCF-7 cells; [1])
 | CCN(CCF)CCOc1ccc(C2Oc3ccc(O)cc3C(C)=C2c2cccc(O)c2)cc1 (stereo not drawn) [Example 23, 2-(4-(2-(Ethyl(2-fluoroethyl)amino)ethoxy)phenyl)-3-(3-hydroxyphenyl)-4-methyl-2H-chromen-6-ol] | < 60 | > 1 | ++ (a single % value ≧ 50%)
 | CC1=C(c2cc(O)c(F)c(F)c2)C(c2ccc(OC[C@H](C)N3CC[C@@H](CF)C3)cc2)Oc2ccc(O)cc21 (stereo partly drawn) [Example 9, 3-(3,4-Difluoro-5-hydroxyphenyl)-2-(4-((S)-2-((R)-3-(fluoromethyl)pyrrolidin-1-yl)propoxy)phenyl)-4-methyl-2H-chromen-6-ol] | > 85 | < 1 | ++ (a single % value ≧ 50%)
< 1 | CC1=C(c2cccc(O)c2)C(c2ccc(OCCN3CC[C@@H](C(F)F)C3)cc2)Oc2ccc(O)cc21 (stereo partly drawn) [Example 21, (R)-2-(4-(2-(3-(Difluoromethyl)pyrrolidin-1-yl)ethoxy)phenyl)-3-(3-hydroxyphenyl)-4-methyl-2H-chromen-6-ol] | > 85 |  | ++ (a single % value ≧ 50%)
< 1 | CC1=C(c2cccc(O)c2)C(c2ccc(OC[C@H](C)N3CC[C@@H](CF)C3)cc2)Oc2ccc(O)cc21 (stereo partly drawn) [Example 3, 2-(4-((S)-2-((R)-3-(Fluoromethyl)pyrrolidin-1-yl)propoxy)phenyl)-3-(3-hydroxyphenyl)-4-methyl-2H-chromen-6-ol] | > 85 |  | ++ (a single % value ≧ 50%)
 | CC1=C(c2ccc(F)c(O)c2)C(c2ccc(OCCN3CC[C@@H](CF)C3)cc2)Oc2ccc(O)cc21 (stereo partly drawn) [Example 8, 3-(4-Fluoro-3-hydroxyphenyl)-2-(4-(2-((R)-3-(fluoromethyl)pyrrolidin-1-yl)ethoxy)phenyl)-4-methyl-2H-chromen-6-ol] | > 85 | > 1 | ++ (a single % value ≧ 50%)
> 1 | CC1=C(c2cccc(O)c2)[C@@H](c2ccc(OCCN3CC[C@@H](CF)C3)cc2)Oc2ccc(O)cc21 (single isomer, unassigned) [Example 2a] | > 85 |  | ++ (a single % value ≧ 50%)
 | CC1=C(c2cc(O)ccc2F)C(c2ccc(OC[C@H](C)N3CC[C@@H](CF)C3)cc2)Oc2ccc(O)cc21 (stereo partly drawn) [Example 14, 3-(2-Fluoro-5-hydroxyphenyl)-2-(4-((S)-2-((R)-3-(fluoromethyl)pyrrolidin-1-yl)propoxy)phenyl)-4-methyl-2H-chromen-6-ol] | > 85 | < 1 | ++ (a single % value ≧ 50%)
 | CC1=C(c2ccc(F)cc2)C(c2ccc(OCCN3CC[C@@H](CF)C3)cc2)Oc2ccc(O)cc21 (stereo partly drawn) [Example 26, 2-(4-(2-((R)-3-(Fluoromethyl)pyrrolidin-1-yl)ethoxy)phenyl)-3-(4-fluorophenyl)-4-methyl-2H-chromen-6-ol] | > 85 | > 1 | ++ (a single % value ≧ 50%)
 | CC1=C(c2cc(O)ccc2F)C(c2ccc(OCCN3CC[C@@H](CF)C3)cc2)Oc2ccc(O)cc21 (stereo partly drawn) [Example 7, 3-(2-Fluoro-5-hydroxyphenyl)-2-(4-(2-((R)-3-(fluoromethyl)pyrrolidin-1-yl)ethoxy)phenyl)-4-methyl-2H-chromen-6-ol] | > 85 | < 1 | ++ (a single % value ≧ 50%)
